# US20240226072A1 (Stichting Het Nederlands Kanker Instituut, priority 2022, published 2024)
# Legend:
# [1] = Plasma pharmacokinetics and tissue distribution 2 h after oral cabazitaxel 10 mg/kg with vehicle or 25 mg/kg ritonavir in wild-type, Oatp1a/1b−/−, Oatp1a/1b/2b1−/−, OATP1B1- and OATP1B3-transgenic mice; format: in vivo; settings: for Cmax / Tmax / AUC(0-t): male, FVB, mouse, plasma, po, 10 mg/kg; for AUC(0-t): read-out: AUC0-2 h; for enhancement of AUC0-2h by ritonavir: ritonavir 25 mg/kg compared to vehicle group; for CLiver / Cbrain / Pbrain, brain accumulation per h / SIC (% of dose), small intestinal content: 2 h
# Procedure: All animals were fasted 2 to 3 hours prior to the start of the experiment to minimize variation in absorption after oral administration. […] Subsequently, cardiac puncture was performed with a heparinized needle and syringe collecting a final blood sample. […] All samples were stored at −30° C. until analysis.
# Differences were considered statistically significant when P<0.05. All data are presented as geometric mean±SD.
# in vivo [2] = settings: mouse; for AUC(0-t) / AUC0-24 h: po; for AUC(0-t): AUC0-24 h
# Procedure: (§1) The Jevtana (10 mg/mL) solution contains 0.26 mg/mL polysorbate 80 and 15% (w/v) ethanol, and is adjusted to pH 2-6 with citric acid. […] The stock solution was further diluted 5-fold with water to reach a 2.5 mg/mL dosing solution for oral administration. The vehicle solution only consists of polysorbate 80, ethanol and water (1:1:8, v/v/v). […] All dosing solutions were prepared freshly on the day of the experiment.
# (§2) At the termination time point of 24 hours, mice were anesthetized using an isoflurane evaporator with 3% isoflurane with 0.8 L/min air and 0.3 L/min oxygen. A final blood sample was taken using cardiac puncture, using Eppendorf tubes previously prepared with heparin as an anticoagulant. Subsequently, the anesthetized mice were sacrificed by cervical dislocation and the tissues of interest were collected. Brain, liver, spleen, kidney, small intestine, and testis were collected. The small intestinal content (SIC) was separately collected by removing this from the small intestinal tissue, which was subsequently rinsed with saline to remove possibly fecal residue. The blood samples were centrifuged at 9,000×g for 6 minutes at 4° C., and the plasma fraction was isolated and stored at −30° C. until analysis. Brain, liver, spleen, kidney, small intestinal tissue, SIC, and testis were homogenized in a FastPrep-24™ 5G homogenizer (M. P. Biomedicals, Santa Ana, CA, USA) for 1 min with 1, 3, 1, 2, 3, 2, and 1 mL of 2% (w/v) BSA in Milli-Q water, respectively. Until analysis of the samples, they were all stored at −30° C.
# (§3) Pharmacokinetic parameters were estimated by non-compartmental analysis using the software package of PK solutions 2.0.2 (SUMMIT, Research Service). The area under the curve (AUC) of the plasma-concentration time curve for all the compounds was calculated using the linear trapezoidal rule without extrapolating to infinity. The peak plasma concentration (Cmax) and the time to reach peak plasma concentration (Tmax) were obtained directly from the individual raw data. For the statistical analysis and the graphs GraphPad Prism 9 (GraphPad Software Inc., La Jolla, CA, USA) was used. The statistics for the comparison of multiple groups were calculated with the one-way analysis of variance (ANOVA), whereas Sidak's post hoc correction was performed. Log-transformation before statistical analysis was applied, when variances within the groups were not homogeneously distributed. Differences were considered statistically significant when P<0.05. All data are presented as geometric mean±SD.
# [3] = input of human simulation, cited from earlier work
# in vivo [4] = settings: male, mouse; for Kp at 24 h: Brain-to-plasma ratio
# Procedure: as §1, §2, §3
# The last parameter is in many cases the most useful, as it takes the overall exposure into account.
# [5] = OATP1B3-transgenic mice, ritonavir 25 mg/kg oral, cabazitaxel 10 mg/kg oral
# [6] = OATP1B3-transgenic mice, vehicle pretreatment, oral 10 mg/kg cabazitaxel
# [7] = OATP1B3-transgenic mice, vehicle, cabazitaxel 10 mg/kg oral
# [8] = Oatp1a/1b/2b1−/− mice, ritonavir 25 mg/kg oral, cabazitaxel 10 mg/kg oral
# [9] = Oatp1a/1b/2b1−/− mice, vehicle pretreatment, oral 10 mg/kg cabazitaxel
# [10] = Oatp1a/1b/2b1−/− mice, vehicle, cabazitaxel 10 mg/kg oral
# [11] = Oatp1a/1b−/− mice, ritonavir 25 mg/kg oral, cabazitaxel 10 mg/kg oral
# [12] = Oatp1a/1b−/− mice, vehicle pretreatment, oral 10 mg/kg cabazitaxel
# [13] = Oatp1a/1b−/− mice, vehicle, cabazitaxel 10 mg/kg oral
# [14] = wild-type mice, ritonavir 25 mg/kg oral, cabazitaxel 10 mg/kg oral
# [15] = wild-type mice, vehicle pretreatment, oral 10 mg/kg cabazitaxel
# [16] = wild-type mice, vehicle, cabazitaxel 10 mg/kg oral
# [17] = Cyp3aXAV vs Cyp3a−/− (FVB background)
# [18] = Cyp3aXAV vs Cyp3a−/− (FVB background), 24 h
structure (smiles),measurement,setting,value
CO[C@H]1C(=O)[C@]2(C)[C@@H](OC)C[C@H]3OC[C@@]3(OC(C)=O)[C@H]2[C@H](OC(=O)c2ccccc2)[C@]2(O)C[C@H](OC(=O)[C@H](O)[C@@H](NC(=O)OC(C)(C)C)c3ccccc3)C(C)=C1C2(C)C [cabazitaxel],Cmax,[1]; [5],3860 nM
same,Tmax,[1]; [5],60 min
same,Cmax,[1]; [6],2690 ± 761 nM
same,Tmax,[1]; [6],27.5 min
same,AUC(0-t),"[1]; OATP1B3-transgenic mice, vehicle pretreatment, oral 10 mg/kg cabazitaxel, 0-2 h",3.51 ± 1.19 µM·h
same,Cmax,[1]; [7],2690 nM
same,Tmax,[1]; [7],27.5 min
same,Cmax,[1]; [8],4270 nM
same,Tmax,[1]; [8],70 min
same,Cmax,[1]; [9],2740 ± 1100 nM
same,Tmax,[1]; [9],26.7 min
same,AUC(0-t),"[1]; Oatp1a/1b/2b1−/− mice, vehicle pretreatment, oral 10 mg/kg cabazitaxel, 0-2 h",2.88 ± 0.616 µM·h
same,Cmax,[1]; [10],2740 nM
same,Tmax,[1]; [10],26.7 min
same,Cmax,[1]; [11],4700 nM
same,Tmax,[1]; [11],80 min
same,Cmax,[1]; [12],2120 ± 398 nM
same,Tmax,[1]; [12],24.2 min
same,AUC(0-t),"[1]; Oatp1a/1b−/− mice, vehicle pretreatment, oral 10 mg/kg cabazitaxel, 0-2 h",2.62 ± 0.417 µM·h
same,Cmax,[1]; [13],2120 nM
same,Tmax,[1]; [13],24.2 min
same,Cmax,[1]; [14],4530 nM
same,Tmax,[1]; [14],120 min
same,Cmax,[1]; [15],2820 ± 694 nM
same,Tmax,[1]; [15],25.8 min
same,AUC(0-t),"[1]; wild-type mice, vehicle pretreatment, oral 10 mg/kg cabazitaxel, 0-2 h",3.28 ± 1.32 µM·h
same,Cmax,[1]; [16],2820 nM
same,Tmax,[1]; [16],25.8 min
same,AUC(0-t),"[1]; wild-type, wild-type mice, ritonavir 25 mg/kg oral, cabazitaxel 10 mg/kg oral",7.62 µM·h
same,AUC(0-t),"[1]; wild-type, wild-type mice, vehicle, cabazitaxel 10 mg/kg oral",3.28 µM·h
same,enhancement of AUC0-2h by ritonavir,[1]; transgenic OATP1B1 mice,2.1 fold
same,enhancement of AUC0-2h by ritonavir,[1]; transgenic OATP1B3 mice,1.9 fold
same,CLiver,[1]; [14],21554 pmol/g
same,Cbrain,[1]; [14],235 pmol/g
same,"Pbrain, brain accumulation per h",[1]; [14],0.026 h⁻¹
same,"SIC (% of dose), small intestinal content",[1]; [14],1.34 % of dose
same,CLiver,[1]; [16],2703 pmol/g
same,Cbrain,[1]; [16],50.0 pmol/g
same,"Pbrain, brain accumulation per h",[1]; [16],0.013 h⁻¹
same,"SIC (% of dose), small intestinal content",[1]; [16],1.14 % of dose
same,increase in AUC0-24h,"in vivo [2]; male, Cyp3aXAV (FVB background), 10 mg/kg",10.1 fold
same,AUC(0-t),"in vivo [2]; male, Cyp3aXAV (human CYP3A in Cyp3a−/−, FVB background), 10 mg/kg",1.24 ± 0.177 µM·h
same,AUC0-24 h,"in vivo [2]; male, FVB, Cyp3aXAV, 10 mg/kg",12.515 µM·h
same,AUC(0-t),"in vivo [2]; male, FVB, Cyp3aXAV, 10 mg/kg",12.5 ± 5.41 µM·h
same,AUC0-24 h,"in vivo [2]; male, FVB, wild-type, 10 mg/kg",72.771 µM·h
same,AUC(0-t),"in vivo [2]; male, FVB, wild-type, 10 mg/kg",72.8 ± 2.62 µM·h
same,alteration in AUC0-24h,in vivo [2]; 1 mg/kg,no alteration
same,"CLint, Intrinsic clearance","[3]; calculated from CL 48.5 and QH 80, sources (17, 18)",123.17 L/h
same,IIV CL,[3],38.8 CV%
same,Lag-time on Ka,"[3]; observed for indinavir PK when co-administered with ritonavir, source (27)",0.483 h
same,"Ka, First order absorption rate constant","[3]; reported for docetaxel, source (26)",0.7 h⁻¹
same,IIV K12,[3]; source (17),84.0 CV%
same,IIV K13,[3]; source (17),64.2 CV%
same,IIV K31,[3]; source (17),28.2 CV%
same,IIV VI,[3]; source (17),93.4 CV%
same,IOV CL,[3]; source (17),19.4 CV%
same,IOV V1,[3]; source (17),45.3 CV%
same,K12,[3]; source (17),2.48 h⁻¹
same,K13,[3]; source (17),4.84 h⁻¹
same,K21,[3]; source (17),0.604 h⁻¹
same,K31,[3]; source (17),0.0266 h⁻¹
same,V1,[3]; source (17),26 L
same,Kp at 24 h,"in vivo [4]; Cyp3aXAV (FVB background), po, 10 mg/kg",1.52
same,reduced AUC0-24h,in vivo [4]; [17],88.8 fold
same,reduced Cmax,in vivo [4]; [17],12.1 fold
same,decrease of liver concentration,in vivo [4]; [18],341.2 fold
same,reduction of brain exposure,in vivo [4]; [18],167.6 fold
same,Kp at 24 h,"in vivo [4]; Cyp3a−/− (FVB background), po, 10 mg/kg",0.231
same,Tmax,"in vivo [4]; Cyp3a−/− (FVB background), po, 10 mg/kg, Tmax",125 min
same,Kp at 24 h,"in vivo [4]; wild-type FVB, po, 10 mg/kg",1.17
